Assay results: the supplement of paper PMC10307832

What was measured:
Experiment in all cases: relative viability (nuclei count vs DMSO), 5 days (fraction); higher = more cells survive
Fedratinib + Bortezomib = compound: Cc1cnc(Nc2ccc(OCCN3CCCC3)cc2)nc1Nc1cccc(S(=O)(=O)NC(C)(C)C)c1 [Fedratinib] + CC(C)C[C@H](NC(=O)[C@H](Cc1ccccc1)NC(=O)c1cnccn1)B(O)O [Bortezomib] (partner 0.002 µM)
Method in brief: (§1)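 Dosing by pin tool came one day after lung cancer cell lines were seeded in 1536-well plates, using either one drug or a fixed anchor-drug dose plus five library-drug doses (not always all listed) in √10 steps. After 5 days, nuclei were counted on 4× images. Relative viability is treated-well nuclei count divided by vehicle-well nuclei count, and values are medians of duplicate plates.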

Fedratinib + Vorinostat = compound: Cc1cnc(Nc2ccc(OCCN3CCCC3)cc2)nc1Nc1cccc(S(=O)(=O)NC(C)(C)C)c1 [Fedratinib] + O=C(CCCCCCC(=O)Nc1ccccc1)NO [Vorinostat] (partner 1 µM)
Method in brief: as §1

GW-2580 + Crizotinib = compound: COC1=CC=C(C=C1)COC2=C(C=C(C=C2)CC3=CN=C(N=C3N)N)OC [GW-2580] + C[C@@H](Oc1cc(-c2cnn(C3CCNCC3)c2)cnc1N)c1c(Cl)ccc(F)c1Cl [Crizotinib] (partner 1 µM)
Method in brief: as §1

Fedratinib + Lapatinib = compound: Cc1cnc(Nc2ccc(OCCN3CCCC3)cc2)nc1Nc1cccc(S(=O)(=O)NC(C)(C)C)c1 [Fedratinib] + CS(=O)(=O)CCNCc1ccc(-c2ccc3ncnc(Nc4ccc(OCc5cccc(F)c5)c(Cl)c4)c3c2)o1 [Lapatinib] (partner 2 µM)
Method in brief: as §1

GW-2580 + Foretinib = compound: COC1=CC=C(C=C1)COC2=C(C=C(C=C2)CC3=CN=C(N=C3N)N)OC [GW-2580] + COc1cc2c(Oc3ccc(NC(=O)C4(C(=O)Nc5ccc(F)cc5)CC4)cc3F)ccnc2cc1OCCCN1CCOCC1 [Foretinib] (partner 0.25 µM)
Method in brief: as §1

Cell Line	relative viability (Fedratinib + Bortezomib; first compound 0.1 µM)	relative viability (Fedratinib + Bortezomib; first compound 0.3162 µM)	relative viability (Fedratinib + Bortezomib; first compound 1 µM)	relative viability (Fedratinib + Vorinostat; first compound 0.1 µM)	relative viability (Fedratinib + Vorinostat; first compound 0.3162 µM)	relative viability (Fedratinib + Vorinostat; first compound 1 µM)	relative viability (GW-2580 + Crizotinib; first compound 0.08 µM)	relative viability (GW-2580 + Crizotinib; first compound 0.8 µM)	relative viability (GW-2580 + Crizotinib; first compound 2.53 µM)	relative viability (GW-2580 + Crizotinib; first compound 8 µM)	relative viability (Fedratinib + Lapatinib; first compound 0.1 µM)	relative viability (Fedratinib + Lapatinib; first compound 0.3162 µM)	relative viability (Fedratinib + Lapatinib; first compound 1 µM)	relative viability (GW-2580 + Foretinib; first compound 0.08 µM)	relative viability (GW-2580 + Foretinib; first compound 0.8 µM)	relative viability (GW-2580 + Foretinib; first compound 2.53 µM)	relative viability (GW-2580 + Foretinib; first compound 8 µM)
HCC-15	1.04	0.963	0.469	0.875	0.824	0.845	0.961	0.956	0.775	0.751	0.879	0.876	0.446	1.06	1.09	1.01	0.958
HCC-44	0.905	0.827	0.734	1.13	1.08	1.01	0.899	0.843	0.751	0.839	1.04	0.911	0.901				
HCC-78	0.439	0.535	0.511	0.382	0.514	0.469	0.331	0.384	0.287	0.297	0.929		0.609	0.524	0.605	0.513	0.497
HCC-366	1.22	1	0.174	0.302	0.343	0.249	0.618	0.581	0.334	0.509	1.34	0.989	0.304	1	0.879	0.964	0.791
LCLC-103H	0.801	0.997	0.897	0.768	0.752	0.718	1.02	1.1	1.08	1.02				0.979	0.865	0.83	0.676
LK-2				0.37	0.242	0.303	0.22	0.247	0.218	0.208	0.798	0.828	0.638	1.62	1.45	1.05	1.2
NCI-H358				0.656	0.654	0.634	0.654	0.543	0.554	0.502	0.366	0.369	0.334	0.761	0.79	0.679	0.557
NCI-H441	0.538	0.484	0.236	0.921	0.749	0.615	0.873	0.736	0.572	0.795				1.03	1.16	1.06	1.1
NCI-H522				0.703	0.82	0.895											
NCI-H1299	1.05	1.02	1.01				0.974	0.984	0.972	0.892	0.963	0.96	0.983	1.17	1.09	0.981	0.971
NCI-H1395				0.588	0.807	0.561					0.911	1.11	0.786	1.08	0.934	1	0.923
NCI-H1563	0.699	0.939	0.631				0.836	0.936	0.875	0.77	0.915	1.07	0.65	0.886	0.961	0.886	0.905
NCI-H1623														0.866	1.01	0.725	0.986
NCI-H1648				0.291	0.36	0.616											
NCI-H1703	0.244	0.341	0.24				0.752	0.631	0.714	0.647	0.675	0.834	0.667	0.404	0.378	0.346	0.342
NCI-H1792	1.14	0.994	0.887				1.03	1.13	0.733	1.13	0.879	0.905	0.827				
NCI-H1793				0.749	0.621	0.515					0.628	0.61	0.311	0.694	0.758	0.584	0.58
NCI-H1944				0.668	0.571	0.516	1.21	1.01	1.4	1.03	0.816	0.803	0.615	0.945	0.886	0.966	0.631
NCI-H2170				0.886	0.776	0.654	1.23	1.33	1.22	1.36	0.255	0.262	0.258	1.05	0.957	0.958	1.04
NCI-H2342				0.94	0.71	0.926								1.02	1.05	0.942	1.07
SK-MES-1				1.08	1.09	0.976	1.01	1.04	0.871	1	0.469	0.481	0.458	1.03	0.934	0.962	0.915
SW 900				0.344	0.377	0.462								0.831	0.905	1.37	0.878
